Test system: Cyclin Dependent Kinase 5 (CDK5)
Assay: Hippocampal CDK5, p35 and p25 protein levels (western blot) after 10 days of oral drinking
Type: in vivo, Wistar rats
Conditions: oral by drinking 100 mg/Kg for 10 days, hippocampus, FIG. 8A
Experimental: Animal experimental procedures were carried out in accordance with the European Communities directive 2010/63/EU and Spanish legislation (Real Decreto 53/2013). The protocol was approved by the Research and approved by Ethics Committee for Animal Experiments of the University of Malaga, Spain. In accordance with the ARRIVE guidelines, all efforts were made to minimize animal suffering and to reduce the number of animals used per experimental group. Chronic drinking experiments on Wistar rats were performed on 20 male rats. All adult rats, ageing 2 months (≈300 g of body weight), were provided by Charles River Laboratories (Barcelona, Spain). The animals were housed individually under a standard 12 h light-dark cycle in a room with temperature and humidity control. Water and rat chow pellets were provided ad libitum throughout the course of the present study.
Caromax®-D-Pinitol (3-O-methyl-d-chiro-inositol, DPIN, 98% purity) and Caromax®-D-Chiro-inositol (cis-1,2,3-trans-3,5,6-cyclohexanehexol, DCI) were provided by Euronutra SL (Málaga, Spain). They were dissolved in water to orally daily administration by drinking and/or gavage at dose of 100 mg/Kg of body weight (BW) in a 1 ml/kg of BW volume to Zucker and Wistar rats for 4 weeks (28 days) and 10 days, respectively (FIG. 1). During the drinking treatments, the concentration of inositols in the water were updated considering the daily increase of BW of the rats and the possible loss of water by evaporation.
Brain extract. […]
Western Blot Analysis. […] Bands were quantified by densitometric analysis using ImageJ software (Rasband, WS, ImageJ, US National Institutes of Health, Bethesda, Md., USA). […] The results were expressed as the protein/α-Adaptin ratio or phosphorylated/total protein ratio and normalized to the control group (Y axis represents ‘fold mean of the control values’).
All data are expressed as mean±SEM. […]

COC1[C@@H](O)[C@@H](O)C(O)[C@H](O)[C@H]1O (stereo partly drawn) [DPIN, (1S,2S,4S,5R)-6-methoxycyclohexane-1,2,3,4,5-pentol]
amount of p25: significantly decreased
amount of p35 subunit: significantly decreased
total amount of CDK5: does not vary
